For 23 molecules, IC50 results are on record in US11230555B2, “Bicyclic RORγ modulators” (Escalier Biosciences B.V., priority 2018, dated 2022).

Bounds are passed on as bounds.

In this experiment the target is T1, RORγt (Homo sapiens, UniProt P51449).
T1 construct: purchased reporter-cell kit
T1 sequence (P51449 269-508 limits assumed): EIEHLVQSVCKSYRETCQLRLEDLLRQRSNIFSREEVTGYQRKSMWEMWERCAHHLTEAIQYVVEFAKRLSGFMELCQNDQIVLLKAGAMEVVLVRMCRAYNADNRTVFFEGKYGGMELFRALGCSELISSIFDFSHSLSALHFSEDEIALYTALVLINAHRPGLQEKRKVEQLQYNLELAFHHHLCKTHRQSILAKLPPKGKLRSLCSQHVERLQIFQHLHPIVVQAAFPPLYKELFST
In words: Gal4 ligand binding assay (RORγt Gal fusion reporter assay). Type of experiment: cell-based. To be noted: inverse agonists, luciferase reporter, 24h. As to the method: Compounds of the present invention were tested in a human RORγ ligand binding assay using a commercially available cell based ligand binding reporter assay in 96-well format (Cat #IB04001, INDIGO Biosciences, State College, Pa.). The N-terminal DNA binding domains (DBD) of the native RORγ and RORγt receptors have been substituted with that of the yeast GAL4-DBD and stably transfected in […] cells that also stably express luciferase under the regulation by upstream activation sequence of yeast Gal4. These cells constitutively express high level RORγ activity due to binding of endogenous co-factors. Both agonist and inverse agonist activity can be detected. The assay was performed according to kit manufacturer's instructions as follows. 10 mM compound stocks were diluted serially 1:3 with DMSO and further diluted with provided media to generate 10 titration points from 60 μM to 3 nM. These treatment conditions were added to the plates as 2× media in 100 μL volume. Each plate includes a positive control with 10 titration points as well as 6negative control wells with vehicle only, with final DMSO concentration of 0.2%. RORγ reporter cells were rapidly thawed and added to the plates in 100 μL volume. The plates were incubated for 24h in a 37° C. humidified 5% CO2incubator. Media was removed before the addition of room temperature luciferous detection substrate. After 5 minute incubation, relative light units (RLUs) were quantified using a plate reading luminometer. Data was normalized to positive control wells with only […]. Before establishing internal controls, ursolic acid was used as control.
(In general: A reporter such as luciferase makes a cellular process visible.)
The molecule `CS(=O)(=O)N1C2CCC1CN(Cc1ccc(-c3ccc(C(O)(C(F)(F)F)C(F)(F)F)cc3)c(Cl)c1)C2` [Example 55, 2-(2′-chloro-4′-((8-(methylsulfonyl)-3,8-diazabicyclo[3.2.1]octan-3-yl)methyl)-[1,1′-biphenyl]-4-yl)-1,1,1,3,3,3-hexafluoropropan-2-ol] yielded an IC50 of 50 to 250 nM.

For `Cc1cc(CN2CC3CCC(C2)N3S(=O)(=O)C2CC2)ccc1-c1ccc(C(O)(C(F)(F)F)C(F)(F)F)cc1` [Example 64, 2-(4′-((8-(cyclopropylsulfonyl)-3,8-diazabicyclo[3.2.1]octan-3-yl)methyl)-2′-methyl-[1,1′-biphenyl]-4-yl)-1,1,1,3,3,3-hexafluoropropan-2-ol], the half-inhibitory concentration (IC50) was 50 to 250 nM.

`CCc1cc(CN2CC3CCC(C2)N3S(C)(=O)=O)ccc1-c1ccc(C(O)(C(F)(F)F)C(F)(F)F)cc1Cl` [Example 27, 2-(2-chloro-2′-ethyl-4′-((8-(methylsulfonyl)-3,8-diazabicyclo[3.2.1]octan-3-yl)methyl)-[1,1′-biphenyl]-4-yl)-1,1,1,3,3,3-hexafluoropropan-2-ol]: the IC50 was < 50 nM.

In the case of `CCc1cc(CN2CC3CCC2CN3S(C)(=O)=O)ccc1-c1ccc(C(O)(C(F)(F)F)C(F)(F)F)cc1` (centres unmarked) [Example 37, 2-(2′-ethyl-4′-((5-(methylsulfonyl)-2,5-diazabicyclo[2.2.2]octan-2-yl)methyl)-[1,1′-biphenyl]-4-yl)-1,1,1,3,3,3-hexafluoropropan-2-ol], the concentration for half-maximal inhibition (IC50) is 50 to 250 nM.

Turning to `CCc1cc(C(O)(C(F)(F)F)C(F)(F)F)ccc1-c1ccc(CN2CC3CCC(C2)N3S(C)(=O)=O)cc1C` [Example 26, 2-(2-ethyl-2′-methyl-4′-((8-(methylsulfonyl)-3,8-diazabicyclo[3.2.1]octan-3-yl)methyl)-[1,1′-biphenyl]-4-yl)-1,1,1,3,3,3-hexafluoropropan-2-ol], the IC50 is < 50 nM.

For the molecule `Cc1cc(CN2CC3CCC(C2)N3Cc2ccnc(O)c2)ccc1-c1ccc(C(O)(C(F)(F)F)C(F)(F)F)cc1` [Example 70, 4-((3-((4′-(1,1,1,3,3,3-hexafluoro-2-hydroxypropan-2-yl)-2-methyl-[1,1′-biphenyl]-4-yl)methyl)-3,8-diazabicyclo[3.2.1]octan-8-yl)methyl)pyridin-2-ol], the IC50 was > 250 nM.

On to `Cc1cc(CN2CC3CCC(C2)N3Cc2ccnnc2)ccc1-c1ccc(C(O)(C(F)(F)F)C(F)(F)F)cc1` [Example 51, 1,1,1,3,3,3-hexafluoro-2-(2′-methyl-4′-((8-(pyridazin-4-ylmethyl)-3,8-diazabicyclo[3.2.1]octan-3-yl)methyl)-[1,1′-biphenyl]-4-yl)propan-2-ol], for which the IC50 is < 50 nM.

Regarding `Cc1cc(CN2CC3CCC(C2)N3Cc2ccncn2)ccc1-c1ccc(C(O)(C(F)(F)F)C(F)(F)F)cc1` [Example 47, 1,1,1,3,3,3-hexafluoro-2-(2′-methyl-4′-((8-(pyrimidin-4-ylmethyl)-3,8-diazabicyclo[3.2.1]octan-3-yl)methyl)-[1,1′-biphenyl]-4-yl)propan-2-ol], the IC50 is < 50 nM.

For `Cc1cc(CN2CC3CCC2CN3S(C)(=O)=O)ccc1-c1ccc(C(O)(C(F)(F)F)C(F)(F)F)cc1` (centres unmarked) [Example 50, 1,1,1,3,3,3-hexafluoro-2-(2′-methyl-4′-((5-(methylsulfonyl)-2,5-diazabicyclo[2.2.2]octan-2-yl)methyl)-[1,1′-biphenyl]-4-yl)propan-2-ol], the IC50 is > 250 nM.

Consider `CCOC(=O)N1C2CCC1CN(Cc1ccc(-c3ccc(C(O)(C(F)(F)F)C(F)(F)F)cc3)c(C)c1)C2` [Example 44, ethyl 3-((4′-(1,1,1,3,3,3-hexafluoro-2-hydroxypropan-2-yl)-2-methyl-[1,1′-biphenyl]-4-yl)methyl)-3,8-diazabicyclo[3.2.1]octane-8-carboxylate], for which the IC50 was > 250 nM.

With `Cc1cc(CN2C3CCC2CN(Cc2ccc(-c4ccc(C(O)(C(F)(F)F)C(F)(F)F)cc4)c(Cl)c2)C3)ccn1` [Example 48, 2-(2′-chloro-4′-((8-((2-methylpyridin-4-yl)methyl)-3,8-diazabicyclo[3.2.1]octan-3-yl)methyl)-[1,1′-biphenyl]-4-yl)-1,1,1,3,3,3-hexafluoropropan-2-ol], the IC50 was in the range of 50 to 250 nM.

Turning to `CCCS(=O)(=O)N1C2CCC1CN(Cc1ccc(-c3ccc(C(O)(C(F)(F)F)C(F)(F)F)cc3)c(C)c1)C2` [Example 68, 1,1,1,3,3,3-hexafluoro-2-(2′-methyl-4′-((8-(propylsulfonyl)-3,8-diazabicyclo[3.2.1]octan-3-yl)methyl)-[1,1′-biphenyl]-4-yl)propan-2-ol], the IC50 was > 250 nM.

Turning to `Cc1cc(CN2CC3CCC(C2)C3NS(C)(=O)=O)ccc1-c1ccc(C(O)(C(F)(F)F)C(F)(F)F)cc1` (centres unmarked) [Example 46, N-(3-((4′-(1,1,1,3,3,3-hexafluoro-2-hydroxypropan-2-yl)-2-methyl-[1,1′-biphenyl]-4-yl)methyl)-3-azabicyclo[3.2.1]octan-8-yl)methanesulfonamide], the IC50 was > 250 nM.

`Cc1cc(CN2CC3CCC(C2)N3S(=O)(=O)C(F)(F)F)ccc1-c1ccc(C(O)(C(F)(F)F)C(F)(F)F)cc1` [Example 60, 1,1,1,3,3,3-hexafluoro-2-(2′-methyl-4′-((8-((trifluoromethyl)sulfonyl)-3,8-diazabicyclo[3.2.1]octan-3-yl)methyl)-[1,1′-biphenyl]-4-yl)propan-2-ol]: the IC50 is > 250 nM.

As for `OC(c1ccc(-c2ccc(CN3CC4CCC(C3)N4Cc3ccncc3)cc2F)cc1)(C(F)(F)F)C(F)(F)F` [Example 59, 1,1,1,3,3,3-hexafluoro-2-(2′-fluoro-4′-((8-(pyridin-4-ylmethyl)-3,8-diazabicyclo[3.2.1]octan-3-yl)methyl)-[1,1′-biphenyl]-4-yl)propan-2-ol], the IC50 was > 250 nM.

On to `CC(=O)N1C2CCC1CN(Cc1ccc(-c3ccc(C(O)(C(F)(F)F)C(F)(F)F)cc3)c(C)c1)C2` [Example 71, 1-(3-((4′-(1,1,1,3,3,3-hexafluoro-2-hydroxypropan-2-yl)-2-methyl-[1,1′-biphenyl]-4-yl)methyl)-3,8-diazabicyclo[3.2.1]octan-8-yl)ethan-1-one], for which the IC50 is 50 to 250 nM.

`CCc1cc(CN2CC3CCC(C2)N3S(C)(=O)=O)ccc1-c1ccc(C(O)(C(F)(F)F)C(F)(F)F)cc1C` [Example 34, 2-(2′-ethyl-2-methyl-4′-((8-(methylsulfonyl)-3,8-diazabicyclo[3.2.1]octan-3-yl)methyl)-[1,1′-biphenyl]-4-yl)-1,1,1,3,3,3-hexafluoropropan-2-ol]: the IC50 is < 50 nM.

`CCc1cc(CN2CC3COCC(C2)N3S(C)(=O)=O)ccc1-c1ccc(C(O)(C(F)(F)F)C(F)(F)F)cc1` [Example 12, 2-(2′-ethyl-4′-((9-(methylsulfonyl)-3-oxa-7,9-diazabicyclo[3.3.1]nonan-7-yl)methyl)-[1,1′-biphenyl]-4-yl)-1,1,1,3,3,3-hexafluoropropan-2-ol] displayed an IC50 of 50 to 250 nM.

As for `Cc1cc(CN2CC3CC2CN3Cc2ccncc2)ccc1-c1ccc(C(O)(C(F)(F)F)C(F)(F)F)cc1` (centres unmarked) [Example 72, 1,1,1,3,3,3-hexafluoro-2-(2′-methyl-4′-((5-(pyridin-4-ylmethyl)-2,5-diazabicyclo[2.2.1]heptan-2-yl)methyl)-[1,1′-biphenyl]-4-yl)propan-2-ol], the IC50 is > 250 nM.

Take `CCc1cc(CN2CC3CCC(C2)N3S(C)(=O)=O)cc(F)c1-c1ccc(C(O)(C(F)(F)F)C(F)(F)F)cc1Cl` [Example 18, 2-(2-chloro-2′-ethyl-6′-fluoro-4′-((8-(methylsulfonyl)-3,8-diazabicyclo[3.2.1]octan-3-yl)methyl)-[1,1′-biphenyl]-4-yl)-1,1,1,3,3,3-hexafluoropropan-2-ol]: the IC50 was < 50 nM.

Take `Cc1cc(CN2CC3CC2CN3S(C)(=O)=O)ccc1-c1ccc(C(O)(C(F)(F)F)C(F)(F)F)cc1` (centres unmarked) [Example 49, 1,1,1,3,3,3-hexafluoro-2-(2′-methyl-4′-((5-(methylsulfonyl)-2,5-diazabicyclo[2.2.1]heptan-2-yl)methyl)-[1,1′-biphenyl]-4-yl)propan-2-ol]: the IC50 is > 250 nM.

As for `Cc1cc(CN2CC3CCC(C2)N3C(=O)c2ccncc2)ccc1-c1ccc(C(O)(C(F)(F)F)C(F)(F)F)cc1` [Example 75, (3-((4′-(1,1,1,3,3,3-hexafluoro-2-hydroxypropan-2-yl)-2-methyl-[1,1′-biphenyl]-4-yl)methyl)-3,8-diazabicyclo[3.2.1]octan-8-yl)(pyridin-4-yl)methanone], the IC50 was in the range of 50 to 250 nM.

On to `CCc1c(F)c(CN2CC3CCC(C2)N3S(C)(=O)=O)cc(F)c1-c1ccc(C(O)(C(F)(F)F)C(F)(F)F)cc1F` [Example 23, 2-(2′-ethyl-2,3′,6′-trifluoro-4′-((8-(methylsulfonyl)-3,8-diazabicyclo[3.2.1]octan-3-yl)methyl)-[1,1′-biphenyl]-4-yl)-1,1,1,3,3,3-hexafluoropropan-2-ol], for which the IC50 was < 50 nM.

For orientation: IC50 means the point on the concentration scale where inhibition reaches its midpoint.
